From US20160115540A1, “PRODRUGS AND DRUGS” (Biogen MA Inc., priority 2013, published 2016)
Structures can show the parent of a compound that is named as a salt.

Tested on: liver
Test: Transcriptional profiling on Affymetrix GeneChips, single dose, naïve mice: liver
Type: in vivo, C57BL/6 mice
Settings: for Number of differentially expressed genes identified: Liver: Naïve, Single Dose, 100 mpk, vs Vehicle
Protocol: Treated mice were sacrificed at 2, 7, or 12 hours. Tissues (liver, spleen, kidney, jejunum, cortex, hippocampus, striatum and whole blood) were collected and analyzed by transcriptional profiling on mouse Affymetrix GeneChips.
Tissues (liver, spleen, kidney, jejunum, cortex, hippocampus, striatum and whole blood) were collected and analyzed by transcriptional profiling on mouse Affymetrix GeneChips.
Animals were exposed to CO2 and whole blood collected via cardiac puncture. Two 100 μl aliquots of whole blood were collected in 1.5 mL microcentrifuge tubes and snap frozen in liquid nitrogen. Peripheral (liver, spleen, kidney and jejunum) and CNS brain (cerebellum, hippocampus, striatum and cortex) tissues were harvested and snap frozen in liquid nitrogen, with special care taken to collect tissues of similar size and from the same location. All samples were stored at −80° C. until RNA extraction was conducted.
For RNA preparation, frozen tissues were placed in 2 mL RNAse-free 96-well blocks with 1.5 mL QIAzol Lysis Reagent (QIAgen) and a 3.2 mm stainless steel bead (BioSpec Products, Bartlesville, Okla.). Tissues were disrupted for four cycles of 45 seconds in a Mini-Beadbeater (Biospec Products). RNA was extracted in chloroform and the aqueous phase was mixed with an equal volume of 70% ethanol. Extracted RNA was applied to RNeasy 96 plates and purified by the spin method according to the manufacturer's protocol (RNeasy 96 Universal Tissue Protocol, QIAgen, Hilden Germany).
Automated sample amplifications and biotin labelings were carried out using the NuGEN Ovation RNA Amplification system V2 (Cat #3100), Ovation WB reagent (Cat #1300) and Encore Biotin module (Cat #4200) (NuGEN Technologies, Inc, San Carlos, Calif.) according to manufacturer's recommendations using an Arrayplex automated liquid handler (Beckman Coulter, Indianapolis, Ind.). Two micrograms of biotin labeled sscDNA probe were hybridized to Affymetrix GeneChip Affymetrix HT_MG-430_PM plate arrays with modified conditions as described in Allaire et al. Washing and staining of the hybridized arrays were completed as described in the GeneChip Expression analysis technical manual for HT plate arrays using the Genechip® Array Station (Affymetrix, Santa Clara, Calif.) with modifications as described in Allaire et al. The processed GeneChip® plate arrays were scanned using GeneTitan scanner (Affymetrix, Santa Clara, Calif.).
Affymetrix scans were subject to quality control (QC) measures. These tests included a visual inspection of the distribution of raw signal intensities and an assessment of RNA degradation, relative log expression (RLE), and normalized unsealed standard error (NUSE). All sample scans that passed these QC metrics were included in the analysis.
All CEL files were subjected to GC-content-based Robust Multi-array Average (GCRMA) normalization (version 2.20.0) (Irizarry R A, et al. Nucleic Acids Res 2003; 31:e15; Li C, et al. Genome Biol 2001; 2:[…]0032). Expression levels were log (base 2) transformed.
All calculations and analyses were carried out using R (version 2.11.1) and Bioconductor computational tools (Gentleman R. Springer Science+Business Media 2005).

[1] = liver, 100 mg/kg, 2 hr, vs matched vehicle controls

SMILES: COC(=O)/C=C/C(=O)O [MMF, monomethyl fumarate]
- FC 1437867_PM_at (no gene symbol) (LIVER, 100MMF-vs-Veh, 2 h): 1.50
- FC 1444516_PM_at (no gene symbol) (LIVER, 100MMF-vs-Veh, 2 h): 2.19
- FC 1447411_PM_at (no gene symbol) (LIVER, 100MMF-vs-Veh, 2 h): 2.81
- FC 9130221J17Rik (1443159_PM_at) (LIVER, 100MMF-vs-Veh, 2 h): 1.57
- FC Abcc1 (1452233_PM_at) (LIVER, 100MMF-vs-Veh, 2 h): 1.86
- FC Akr1b8 (1448894_PM_at) (LIVER, 100MMF-vs-Veh, 2 h): 2.27
- FC Caprin1 (1448348_PM_at) (LIVER, 100MMF-vs-Veh, 2 h): −1.56
- FC Clec4d (1420804_PM_s_at) (LIVER, 100MMF-vs-Veh, 2 h): 2.05
- FC Csnk2a1 (1419038_PM_a_at) (LIVER, 100MMF-vs-Veh, 2 h): −1.62
- FC Figf (1438953_PM_at) (LIVER, 100MMF-vs-Veh, 2 h): 2.25
- FC Figf (1438954_PM_x_at) (LIVER, 100MMF-vs-Veh, 2 h): 1.79
- FC Fxr1 (1452247_PM_at) (LIVER, 100MMF-vs-Veh, 2 h): −1.53
- FC Gclc (1424296_PM_at) (LIVER, 100MMF-vs-Veh, 2 h): 1.72
- FC Gclc (1455959_PM_s_at) (LIVER, 100MMF-vs-Veh, 2 h): 1.64
- FC Hmox1 1448239_PM_at (LIVER, 100MMF-vs-Veh, 2 h): 2.41
- FC Meis2 (1440091_PM_at) (LIVER, 100MMF-vs-Veh, 2 h): −1.67
- FC Pgd (1436771_PM_x_at) (LIVER, 100MMF-vs-Veh, 2 h): 1.61
- FC Pgd (1437380_PM_x_at) (LIVER, 100MMF-vs-Veh, 2 h): 1.65
- FC Ppfibp2 (1417801_PM_a_at) (LIVER, 100MMF-vs-Veh, 2 h): 2.55
- FC Prpf38b (1455016_PM_at) (LIVER, 100MMF-vs-Veh, 2 h): −1.53
- FC Srxn1 (1419942_PM_at) (LIVER, 100MMF-vs-Veh, 2 h): 1.68
- FC Srxn1 (1426875_PM_s_at) (LIVER, 100MMF-vs-Veh, 2 h): 1.63
- FC Srxn1 (1451680_PM_at) (LIVER, 100MMF-vs-Veh, 2 h): 1.55
- FC 2010003K11Rik (1424626_PM_at) (LIVER, 100MMF-vs-Veh, 7 h): 2.20
- FC 4930588G05Rik (1430175_PM_at) (LIVER, 100MMF-vs-Veh, 7 h): −1.76
- FC Akr1b8 (1448894_PM_at) (LIVER, 100MMF-vs-Veh, 7 h): 1.75
- FC Bmp6 (1450759_PM_at) (LIVER, 100MMF-vs-Veh, 7 h): 1.65
- FC Cda (1427357_PM_at) (LIVER, 100MMF-vs-Veh, 7 h): 1.92
- FC Clec4n (1419627_PM_s_at) (LIVER, 100MMF-vs-Veh, 7 h): 2.40
- FC Erc2 (1434582_PM_at) (LIVER, 100MMF-vs-Veh, 7 h): −1.95
- FC Fzd8 (1445815_PM_at) (LIVER, 100MMF-vs-Veh, 7 h): −1.81
- FC G6pdx (1448354_PM_at) (LIVER, 100MMF-vs-Veh, 7 h): 1.61
- FC Marco (1449498_PM_at) (LIVER, 100MMF-vs-Veh, 7 h): 2.44
- FC Nqo1 (1423627_PM_at) (LIVER, 100MMF-vs-Veh, 7 h): 2.20
- FC Pir (1429001_PM_at) (LIVER, 100MMF-vs-Veh, 7 h): 1.50
- FC Srxn1 (1419942_PM_at) (LIVER, 100MMF-vs-Veh, 7 h): 1.52
- FC Srxn1 (1426875_PM_s_at) (LIVER, 100MMF-vs-Veh, 7 h): 1.53
- FC Srxn1 (1451680_PM_at) (LIVER, 100MMF-vs-Veh, 7 h): 1.58
- FC 1810055G02Rik (1425921_PM_a_at) (LIVER, 100MMF-vs-Veh, 12 h): 1.86
- FC 4933433P14Rik (1431334_PM_a_at) (LIVER, 100MMF-vs-Veh, 12 h): 1.81
- FC Ablim1 (1453103_PM_at) (LIVER, 100MMF-vs-Veh, 12 h): −1.51
- FC Car3 (1460256_PM_at) (LIVER, 100MMF-vs-Veh, 12 h): −1.57
- FC Clmn (1439117_PM_at) (LIVER, 100MMF-vs-Veh, 12 h): −1.54
- FC Ctla2a (1448471_PM_a_at) (LIVER, 100MMF-vs-Veh, 12 h): 1.63
- FC Dnajc12 (1417441_PM_at) (LIVER, 100MMF-vs-Veh, 12 h): 2.53
- FC Fndc3b (1433833_PM_at) (LIVER, 100MMF-vs-Veh, 12 h): 1.66
- FC Gadd45b (1450971_PM_at) (LIVER, 100MMF-vs-Veh, 12 h): 1.50
- FC Gm3579 (1431214_PM_at) (LIVER, 100MMF-vs-Veh, 12 h): 2.74
- FC Hyou1 (1423290_PM_at) (LIVER, 100MMF-vs-Veh, 12 h): 1.82
- FC Hyou1 (1423291_PM_s_at) (LIVER, 100MMF-vs-Veh, 12 h): 1.52
- FC Lrrc59 (1416235_PM_at) (LIVER, 100MMF-vs-Veh, 12 h): 1.65
- FC Nme6 (1448574_PM_at) (LIVER, 100MMF-vs-Veh, 12 h): 1.57
- FC Ppapdc1b (1428154_PM_s_at) (LIVER, 100MMF-vs-Veh, 12 h): 1.87
- FC Ppm1k 1441988_PM_at (LIVER, 100MMF-vs-Veh, 12 h): −1.56
- Number of genes, DMF Only / MMF Only (Liver): 34
- Number of differentially expressed genes identified: Liver (2 h after last dosing): 23
- Number of differentially expressed genes identified: Liver (7 h after last dosing): 15
- Number of differentially expressed genes identified: Liver (12 h after last dosing): 16
- Murine Liver DEGs: Abcc1 (1452233_PM_at) [1]: 1.86
- Murine Liver DEGs: Akr1b8 (1448894_PM_at) [1]: 2.27
- Murine Liver DEGs: Ampd3 (1422573_PM_at) [1]: 1.70
- Murine Liver DEGs: Caprin1 (1448348_PM_at) [1]: −1.56
- Murine Liver DEGs: Clec4d (1420804_PM_s_at) [1]: 2.05
- Murine Liver DEGs: Cmah (1447019_PM_at) [1]: −1.55
- Murine Liver DEGs: Csnk2a1 (1419038_PM_a_at) [1]: −1.62
- Murine Liver DEGs: Figf (1438953_PM_at) [1]: 2.25
- Murine Liver DEGs: Fxr1 (1452247_PM_at) [1]: −1.53
- Murine Liver DEGs: Gclc (1424296_PM_at) [1]: 1.72
- Murine Liver DEGs: Hmox1 (1448239_PM_at) [1]: 2.41
- Murine Liver DEGs: Meis2 (1440091_PM_at) [1]: −1.67
- Murine Liver DEGs: Mkln1 (1416734_PM_at) [1]: −1.69
- Murine Liver DEGs: Pgd (1436771_PM_x_at) [1]: 1.61
- Murine Liver DEGs: Ppfibp2 (1417801_PM_a_at) [1]: 2.55
- Murine Liver DEGs: Prpf38b (1455016_PM_at) [1]: −1.53
- Murine Liver DEGs: Ptprb (1453908_PM_at) [1]: −1.76
- Murine Liver DEGs: Ptprg (1456070_PM_at) [1]: −1.85
